Holding throughout (test): In vitro antibacterial activity, MIC, broth microdilution
Common to all, as to assay type: cell-based
A general note: In broth dilution the organism is exposed to a series of concentrations in liquid medium.

Assay [1] deals with Streptococcus pyogenes A 26. The note with it: Streptococcus pyogenes, A26; S. pyogenes A 26; MHB + 5% horse serum; 37° C., 18 hours; read-out: minimum inhibiting concentration MIC. The method, then:
(§1) a) In vitro antibacterial activity The determination of the minimum inhibiting concentrations (MIC), with respect to Gram-positive and Gram-negative bacteria was carried out through the micromethod of gradual broth dilution in double series [National Committee for Clinical Laboratory Standards, 1990; Methods for dilution antimicrobial susceptibility tests for bacteria that grow aerobically; Approved standards […], Villanova, Pa.], by using Mueller Hinton Broth (MHB) as a culture medium. In the case of […] bacteria, horse serum at 5% (Streptococcus pneumoniae and Streptococcus pyogenes) was added to the medium. Roxithromycin and Clarithromycin [The Merck Index, XI Ed., No. 8253 and 2340, respectively] were used as reference macrolides. MIC, expressed as (μg/ml), were determined after incubation of the microplates at 37° C. for 18 hours, evaluating the lowest antibiotic concentration enabling the inhibition of bacterial development.

Assay [2] relates to Streptococcus pneumoniae BS 4. The note with it: Streptococcus pneumoniae, BS4; S. pneumoniae BS 4; MHB + 5% horse serum; 37° C., 18 hours; read-out: minimum inhibiting concentration MIC. The method, then: as §1
The subject of assay [3] is Staphylococcus aureus PV 14. The note with it: Staphylococcus aureus, PV14; S. aureus PV 14; MHB; 37° C., 18 hours; read-out: minimum inhibiting concentration MIC. The method, then: as §1
Assay [4] has as its system Enterococcus faecalis ATCC 29212. The note with it: Enterococcus faecalis, ATCC29212; E. faecalis ATCC 29212; MHB; 37° C., 18 hours; read-out: minimum inhibiting concentration MIC. The method, then: as §1
Assay [5] concerns Klebsiella pneumoniae ZC 2. The note with it: Klebsiella pneumoniae, ZC2; K. pneumoniae ZC 2; MHB; 37° C., 18 hours; read-out: minimum inhibiting concentration MIC. The method, then:
as §1

The subject of assay [6] is Streptococcus pyogenes C 203. The note with it: Streptococcus pyogenes, C203; S. pyogenes C 203; MHB + 5% horse serum; 37° C., 18 hours; read-out: minimum inhibiting concentration MIC. The method, then: as §1
The test system of assay [7] is Streptococcus pneumoniae BS 3. The note with it: Streptococcus pneumoniae, BS3; S. pneumoniae BS 3; MHB + 5% horse serum; 37° C., 18 hours; read-out: minimum inhibiting concentration MIC. The method, then: as §1
For assay [8], the system named is Escherichia coli ATCC 25922. The note with it: Escherichia coli, ATCC25922; E. coli ATCC 25922; MHB; 37° C., 18 hours; read-out: minimum inhibiting concentration MIC. The method, then:
as §1

Experimental findings from patent publication US5847092A (Zambon Group S.p.A., priority 1994, dated 1998) are described below.

Structures are written as SMILES. ≈ marks a conversion by molar mass, not a printed value.

Consider `CC[C@H]1OC(=O)[C@H](C)[C@@H](O[C@H]2C[C@@](C)(OC)[C@@H](O)[C@H](C)O2)[C@H](C)[C@@H](O[C@@H]2O[C@H](C)C[C@H](N(C)C)[C@H]2O)[C@](C)(O)C[C@@H](C)/C(=N\OCCNCCNCc2ccccc2)[C@H](C)[C@@H](O)[C@]1(C)O` [Compound 5, Erythromycin A (E)-9-[0-[2-[2-(phenylmethylamino)ethylamino]ethyl]oxime]], for which the MIC amounted to 0.0312 µg/mL in assay [1]; 0.0312 µg/mL in assay [2]; 1 µg/mL (≈ 1.08 µM) in assay [3]; 4 µg/mL (≈ 4.32 µM) in assay [4]; 32 µg/mL (≈ 34.6 µM) in assay [5]; 0.0156 µg/mL in assay [6]. Moreover, the MIC in assay [7] worked out at 0.0156 µg/mL; in assay [8] it was 8 µg/mL (≈ 8.65 µM).

With `CC[C@H]1OC(=O)[C@H](C)[C@@H](O[C@H]2C[C@@](C)(OC)[C@@H](O)[C@H](C)O2)[C@H](C)[C@@H](O[C@@H]2O[C@H](C)C[C@H](N(C)C)[C@H]2O)[C@](C)(O)C[C@@H](C)/C(=N\OCCCCCCNCCCCCCNCc2ccccc2)[C@H](C)[C@@H](O)[C@]1(C)O` [Compound 6, Erythromycin A (E)-9-[0-[6-[6-(phenylmethylamino)hexylamino]hexyl]oxime]], the MIC in assay [1] was found to be 0.0312 µg/mL; in assay [2], 0.0312 µg/mL; in assay [3], 0.25 µg/mL (≈ 0.241 µM); in assay [4], 8 µg/mL (≈ 7.71 µM); in assay [5], 16 µg/mL (≈ 15.4 µM); in assay [6], 0.0156 µg/mL. The MIC came out at 0.0156 µg/mL in assay [7] and 4 µg/mL (≈ 3.86 µM) in assay [8].

Consider `CC[C@H]1OC(=O)[C@H](C)[C@@H](O[C@H]2C[C@@](C)(OC)[C@@H](O)[C@H](C)O2)[C@H](C)[C@@H](O[C@@H]2O[C@H](C)C[C@H](N(C)C)[C@H]2O)[C@](C)(O)C[C@@H](C)/C(=N\OCCCCCCNCCCNCc2ccccc2)[C@H](C)[C@@H](O)[C@]1(C)O` [Compound 7, Erythromycin A (E)-9-[0-[6-[3-(phenylmethylamino)propylamino]hexyl]oxime]], for which the MIC in assay [1] came out at 0.0312 µg/mL; in assay [2], 0.0625 µg/mL; in assay [3], 0.5 µg/mL (≈ 0.502 µM); in assay [4] it was 4 µg/mL (≈ 4.02 µM); in assay [5], 16 µg/mL (≈ 16.1 µM); in assay [6] it was 0.0156 µg/mL. In addition, the MIC in assay [7] stood at 0.0625 µg/mL; in assay [8], 4 µg/mL (≈ 4.02 µM).

As for `CC[C@H]1OC(=O)[C@H](C)[C@@H](O[C@H]2C[C@@](C)(OC)[C@@H](O)[C@H](C)O2)[C@H](C)[C@@H](O[C@@H]2O[C@H](C)C[C@H](N(C)C)[C@H]2O)[C@](C)(O)C[C@@H](C)/C(=N\OCCCCCCNCCCCCNCc2ccccc2)[C@H](C)[C@@H](O)[C@]1(C)O` [Compound 8, Erythromycin A (E)-9-[0-[6-[5-(phenylmethylamino)pentylamino]hexyl]oxime]], the MIC in assay [1] was determined as 0.0312 µg/mL; in assay [2] it was 0.5 µg/mL; in assay [3] it was 0.5 µg/mL (≈ 0.489 µM); in assay [4], 8 µg/mL (≈ 7.82 µM); in assay [5], 16 µg/mL (≈ 15.6 µM); in assay [6], 0.0078 µg/mL. Also, the MIC in assay [7] came out at 0.25 µg/mL; in assay [8], 4 µg/mL (≈ 3.91 µM).

`CC[C@H]1OC(=O)[C@H](C)[C@@H](O[C@H]2C[C@@](C)(OC)[C@@H](O)[C@H](C)O2)[C@H](C)[C@@H](O[C@@H]2O[C@H](C)C[C@H](N(C)C)[C@H]2O)[C@](C)(O)C[C@@H](C)/C(=N\OCCNCCCCCCCCNCc2ccccc2)[C@H](C)[C@@H](O)[C@]1(C)O` [Compound 9, Erythromycin A (E)-9-[0-[2-[8-(phenylmethyiamino)octylamino]ethyl]oxime]]: the MIC in assay [1] was 0.0078 µg/mL; in assay [2], 0.0078 µg/mL; in assay [3], 0.25 µg/mL (≈ 0.248 µM); in assay [4], 4 µg/mL (≈ 3.96 µM); in assay [5] it was 16 µg/mL (≈ 15.9 µM); in assay [6], 0.0039 µg/mL. Besides, the MIC in assay [7] worked out at 0.0078 µg/mL; in assay [8], 4 µg/mL (≈ 3.96 µM).

On to `CC[C@H]1OC(=O)[C@H](C)[C@@H](O[C@H]2C[C@@](C)(OC)[C@@H](O)[C@H](C)O2)[C@H](C)[C@@H](O[C@@H]2O[C@H](C)C[C@H](N(C)C)[C@H]2O)[C@](C)(O)C[C@@H](C)/C(=N\OCCCCCNCCCCCCNCc2ccccc2)[C@H](C)[C@@H](O)[C@]1(C)O` [Compound 11, Erythromycin A (E)-9-[0-[5-[6-(phenylmethylamino)hexylamino]pentyl]oxime]], for which the MIC in assay [1] is 0.0625 µg/mL; in assay [2], 0.5 µg/mL; in assay [3], 0.5 µg/mL (≈ 0.489 µM); in assay [4], 16 µg/mL (≈ 15.6 µM); in assay [5], 16 µg/mL (≈ 15.6 µM); in assay [6], 0.0312 µg/mL. For the same compound, the MIC in assay [7] stood at 0.25 µg/mL; in assay [8], 8 µg/mL (≈ 7.82 µM).

Take `CC[C@H]1OC(=O)[C@H](C)[C@@H](O[C@H]2C[C@@](C)(OC)[C@@H](O)[C@H](C)O2)[C@H](C)[C@@H](O[C@@H]2O[C@H](C)C[C@H](N(C)C)[C@H]2O)[C@](C)(O)C[C@@H](C)/C(=N\OCCCNCCCCCCNCc2ccccc2)[C@H](C)[C@@H](O)[C@]1(C)O` [Compound 12, Erythromycin A (E)-9-[0-[3-[6-(phenylmethylamino)hexylamino]propyl]oxime]]: the MIC in assay [1] amounted to 0.0625 µg/mL; in assay [2] it was 0.5 µg/mL; in assay [3] it was 0.25 µg/mL (≈ 0.251 µM); in assay [4], 16 µg/mL (≈ 16.1 µM); in assay [5] it was 32 µg/mL (≈ 32.1 µM); in assay [6], 0.0312 µg/mL. The MIC in assay [7] stood at 0.25 µg/mL; in assay [8], 8 µg/mL (≈ 8.04 µM).

`CC[C@H]1OC(=O)[C@H](C)[C@@H](O[C@H]2C[C@@](C)(OC)[C@@H](O)[C@H](C)O2)[C@H](C)[C@@H](O[C@@H]2O[C@H](C)C[C@H](N(C)C)[C@H]2O)[C@](C)(O)C[C@@H](C)/C(=N\OCCNCCCCCCNCc2ccccc2O)[C@H](C)[C@@H](O)[C@]1(C)O` [Compound 24, Erythromycin A (E)-9-[0-[2-[6-[(2-hydroxyphenyl)methylamino]hexylamino]ethyl]oxime]]: the MIC was determined as 0.0156 µg/mL in assay [1]; 0.0156 µg/mL in assay [2]; 0.25 µg/mL (≈ 0.251 µM) in assay [3]; 4 µg/mL (≈ 4.01 µM) in assay [4]; 8 µg/mL (≈ 8.02 µM) in assay [5]; 0.0039 µg/mL in assay [6]. In addition, the MIC in assay [7] stood at 0.0078 µg/mL; in assay [8], 4 µg/mL (≈ 4.01 µM).

As to `CC[C@H]1OC(=O)[C@H](C)[C@@H](O[C@H]2C[C@@](C)(OC)[C@@H](O)[C@H](C)O2)[C@H](C)[C@@H](O[C@@H]2O[C@H](C)C[C@H](N(C)C)[C@H]2O)[C@](C)(O)C[C@@H](C)/C(=N\OCCNCCCCCCNCc2cccc(O)c2)[C@H](C)[C@@H](O)[C@]1(C)O` [Compound 25, Erythromycin A (E)-9-[0-[2-[6-[(3-hydroxyphenyl)methylamino]hexylamino]ethyl]oxime]], the MIC came to 0.125 µg/mL in assay [1]; 0.25 µg/mL in assay [2]; 0.125 µg/mL (≈ 0.125 µM) in assay [3]; 8 µg/mL (≈ 8.02 µM) in assay [4]; 16 µg/mL (≈ 16 µM) in assay [5]; 0.0312 µg/mL in assay [6]. For the same compound, the results for the MIC in assay [7] and in assay [8] were 0.25 µg/mL and 8 µg/mL (≈ 8.02 µM), respectively.

In the case of `CC[C@H]1OC(=O)[C@H](C)[C@@H](O[C@H]2C[C@@](C)(OC)[C@@H](O)[C@H](C)O2)[C@H](C)[C@@H](O[C@@H]2O[C@H](C)C[C@H](N(C)C)[C@H]2O)[C@](C)(O)C[C@@H](C)/C(=N\OCCNCCCCCCNCc2ccc(O)cc2)[C@H](C)[C@@H](O)[C@]1(C)O` [Compound 28, Erythromycin A (E)-9-[0-[2-[6-[(4-hydroxyphenyl)methylamino]hexylamino]ethyl]oxime]], the MIC in assay [1] was determined as 0.25 µg/mL; in assay [2], 0.25 µg/mL; in assay [3] it was 0.125 µg/mL (≈ 0.125 µM); in assay [4] it was 16 µg/mL (≈ 16 µM); in assay [5], 32 µg/mL (≈ 32.1 µM); in assay [6] it was 0.125 µg/mL. Also, the MIC worked out at 0.25 µg/mL in assay [7] and 16 µg/mL (≈ 16 µM) in assay [8].

In the case of `CC[C@H]1OC(=O)[C@H](C)[C@@H](O[C@H]2C[C@@](C)(OC)[C@@H](O)[C@H](C)O2)[C@H](C)[C@@H](O[C@@H]2O[C@H](C)C[C@H](N(C)C)[C@H]2O)[C@](C)(O)C[C@@H](C)/C(=N\OCCNCCCCCCNCc2ccco2)[C@H](C)[C@@H](O)[C@]1(C)O` [Compound 31], the MIC in assay [1] worked out at 0.0078 µg/mL; in assay [2], 0.0078 µg/mL; in assay [3] it was 0.5 µg/mL (≈ 0.515 µM); in assay [4] it was 4 µg/mL (≈ 4.12 µM); in assay [5], 16 µg/mL (≈ 16.5 µM); in assay [6], 0.0039 µg/mL. Also, the MIC in assay [7] amounted to 0.0078 µg/mL; in assay [8], 4 µg/mL (≈ 4.12 µM).
